# Tests used:
# E. coli = experiment: MIC in Nutrient Agar; assay type: cell-based, Escherichia coli; settings: 8 strains; Nutrient Agar containing 0.1 μg/ml of inducer; 37° C., 24 hours
# Experimental: (§1) The triclosan-glycosides were added to Nutrient Agar (Oxoid CM0003; Thermofisher Scientific) and organisms were transferred onto the plates surface using a multi-point inoculation device (Oxoid Cathra, Thermofisher Scientific). The latter is essentially a metal plate containing a number of needles. Each needle tip (usually 36 per plate) dips into an organism suspension (in phosphate buffered saline; PBS) and the needles are then moved over the agar plate and lowered onto its surface. In this way the growth of colonies of up to 36 different organisms can be observed on one plate.
# (§2) Nutrient Agar No. 2 was prepared according to the manufacturers instructions, autoclaved and cooled to 50° C. Test compounds were then added as filter sterilised solutions (50:50 deionised water:ethanol), to give final concentrations from 256 μg/ml to 0 μg/ml in doubling dilutions. […] The mixtures were swirled then four plates (25 ml molten agar) were poured for each concentration. Plates were dried in a laminar flow cabinet then inoculated with overnight cultures of organisms that had been decimally diluted twice in sterile saline solution (approximately 10^7 cfu/ml) using a multi-point inoculator. Plates were then incubated at 37° C. for 24 hours. MICs were determined as the concentration at which no growth was observed.
# Staph. epidermidis = experiment: MIC in Nutrient Broth No. 2; assay type: cell-based, Staphylococcus epidermidis; settings: 3 strains, Nutrient Broth No. 2
# Experimental: (§3) Bacteria species as indicated in Table 1 were incubated for approximately 24 hours at 37° C.
# (§4) The tests were repeated with the addition of inducers. Methyl glycoside was the main inducer used, but other suitable inducers include isopropyl-β-D-thiogalactopyranoside, p-nitrophenyl-α-L-arabinopyranoside and p-nitrophenyl-β-D-xylopyranoside. Concentration of inducer in all cases was 100 μg/ml.
# [1] = system: Aeromonas hydrophila OCC 778; experiment: MIC in Nutrient Broth No. 2; assay type: cell-based; settings: Nutrient Broth No. 2
# Experimental: as §3, §4
# Hafnia alvei ATCC 13337 = experiment: MIC in Nutrient Broth No. 2; assay type: cell-based; settings: Nutrient Broth No. 2
# Experimental: as §3, §4
# [2] = system: Enterococcus faecium ATCC 19434; experiment: MIC in Nutrient Broth No. 2; assay type: cell-based; settings: Nutrient Broth No. 2
# Experimental: as §3, §4
# [3] = system: Enterobacter aerogenes ATCC 13048; experiment: MIC in Nutrient Broth No. 2; assay type: cell-based; settings: Nutrient Broth No. 2
# Experimental: as §3, §4
# [4] = system: Bacillus subtilis NCTC 10073; experiment: MIC in Nutrient Broth No. 2; assay type: cell-based; settings: Nutrient Broth No. 2
# Experimental: as §3, §4
# [5] = system: Ps. Aeruginosa ATCC 27853; experiment: MIC in Nutrient Broth No. 2; assay type: cell-based; settings: Nutrient Broth No. 2
# Experimental: as §3, §4
# [6] = system: Citrobacter freundii OCC 851; experiment: MIC in Nutrient Broth No. 2; assay type: cell-based; settings: Nutrient Broth No. 2
# Experimental: as §3, §4
# Escherichia coli = experiment: MIC in Nutrient Broth No. 2; assay type: cell-based; settings: 8 strains, Nutrient Broth No. 2
# Experimental: as §3, §4
# [7] = system: Serratia marcescens OCC 217; experiment: MIC in Nutrient Broth No. 2; assay type: cell-based; settings: Nutrient Broth No. 2
# Experimental: as §3, §4
# [8] = system: Enterococcus faecalis ATCC 29212; experiment: MIC in Nutrient Broth No. 2; assay type: cell-based; settings: Nutrient Broth No. 2
# Experimental: as §3, §4
# Salmonella = experiment: MIC in Nutrient Broth No. 2; assay type: cell-based; settings: 11 strains, Nutrient Broth No. 2
# Experimental: as §3, §4
# [9] = system: Proteus mirabilis ATCC 12453; experiment: MIC in Nutrient Broth No. 2; assay type: cell-based; settings: Nutrient Broth No. 2
# Experimental: as §3, §4
# [10] = system: Bacillus cereus ATCC 14579; experiment: MIC in Nutrient Broth No. 2; assay type: cell-based; settings: Nutrient Broth No. 2
# Experimental: as §3, §4
# Proteus vulgaris OCC 195 = experiment: MIC in Nutrient Broth No. 2; assay type: cell-based; settings: Nutrient Broth No. 2
# Experimental: as §3, §4
# Str. agalactiae = experiment: MIC in Nutrient Agar; assay type: cell-based, Streptococcus agalactiae; settings: Nutrient Agar containing 0.1 μg/ml of inducer; 37° C., 24 hours
# Experimental: as §1, §2
# S. haemolyticus = experiment: MIC in Nutrient Agar; assay type: cell-based, Staphylococcus haemolyticus; settings: Nutrient Agar containing 0.1 μg/ml of inducer; 37° C., 24 hours
# Experimental: as §1, §2
# S. aureus = experiment: MIC in Nutrient Agar; assay type: cell-based, Staphylococcus aureus; settings: 8 strains; Nutrient Agar containing 0.1 μg/ml of inducer; 37° C., 24 hours
# Experimental: as §1, §2
# [11] = system: Strep. pyogenes ATCC 19615; experiment: MIC in Nutrient Broth No. 2; assay type: cell-based, Streptococcus pyogenes; settings: Nutrient Broth No. 2
# Experimental: as §3, §4
# Cr. sakazakii = experiment: MIC in Nutrient Agar; assay type: cell-based, Cronobacter sakazakii; settings: Nutrient Agar containing 0.1 μg/ml of inducer; 37° C., 24 hours
# Experimental: as §1, §2
# E. hermanii = experiment: MIC in Nutrient Agar; assay type: cell-based, Escherichia hermanii; settings: Nutrient Agar containing 0.1 μg/ml of inducer; 37° C., 24 hours
# Experimental: as §1, §2
# Str. pyogenes = experiment: MIC in Nutrient Agar; assay type: cell-based, Streptococcus pyogenes; settings: Nutrient Agar containing 0.1 μg/ml of inducer; 37° C., 24 hours
# Experimental: as §1, §2
# Strep. viridans OCC 234 = experiment: MIC in Nutrient Broth No. 2; assay type: cell-based, Streptococcus viridans; settings: Nutrient Broth No. 2
# Experimental: as §3, §4
# E. hermanii ATCC 33650 = experiment: MIC in Nutrient Broth No. 2; assay type: cell-based, Escherichia hermanii; settings: Nutrient Broth No. 2
# Experimental: as §3, §4
# [12] = system: Strep. pneumoniae ATCC 6305; experiment: MIC in Nutrient Broth No. 2; assay type: cell-based, Streptococcus pneumoniae; settings: Nutrient Broth No. 2
# Experimental: as §3, §4
# Str. viridans = experiment: MIC in Nutrient Agar; assay type: cell-based, Streptococcus viridans; settings: Nutrient Agar containing 0.1 μg/ml of inducer; 37° C., 24 hours
# Experimental: as §1, §2
# Kleb. aerogenes = experiment: MIC in Nutrient Agar; assay type: cell-based, Klebsiella aerogenes; settings: Nutrient Agar containing 0.1 μg/ml of inducer; 37° C., 24 hours
# Experimental: as §1, §2
# [13] = system: Crono. sakazakii ATCC 29544; experiment: MIC in Nutrient Broth No. 2; assay type: cell-based, Cronobacter sakazakii; settings: Nutrient Broth No. 2
# Experimental: as §3, §4
# Ent. cloacae ATCC 13047 = experiment: MIC in Nutrient Broth No. 2; assay type: cell-based, Enterobacter cloacae; settings: Nutrient Broth No. 2
# Experimental: as §3, §4
# Ent. cloacae = experiment: MIC in Nutrient Agar; assay type: cell-based, Enterobacter cloacae; settings: Nutrient Agar containing 0.1 μg/ml of inducer; 37° C., 24 hours
# Experimental: as §1, §2
# Staph. aureus = experiment: MIC in Nutrient Broth No. 2; assay type: cell-based, Staphylococcus aureus; settings: 8 strains, Nutrient Broth No. 2
# Experimental: as §3, §4
smiles,measurement,setting,value
"OC[C@H]1O[C@H](Oc2cc(Cl)ccc2Oc2ccc(Cl)cc2Cl)[C@H](O)[C@@H](O)[C@@H]1O [α-D-Glucoside, triclosan-α-D-glucopyranoside]",MIC,E. coli,0.5 to 4 µg/mL
same,MIC,Staph. epidermidis; with inducer 100 μg/ml,1 µg/mL
same,MIC,Staph. epidermidis; without inducer,1 µg/mL
same,MIC,[1]; with inducer 100 μg/ml,256 µg/mL
same,MIC,[1]; without inducer,256 µg/mL
same,MIC,Hafnia alvei ATCC 13337; with inducer 100 μg/ml,1 µg/mL
same,MIC,Hafnia alvei ATCC 13337; without inducer,1 µg/mL
same,MIC,[2]; with inducer 100 μg/ml,256 µg/mL
same,MIC,[2]; without inducer,256 µg/mL
same,MIC,[3]; with inducer 100 μg/ml,4 µg/mL
same,MIC,[3]; without inducer,8 µg/mL
same,MIC,[4]; with inducer 100 μg/ml,32 µg/mL
same,MIC,[4]; without inducer,32 µg/mL
same,MIC,[5]; with inducer 100 μg/ml,>256 µg/mL
same,MIC,[5]; without inducer,>256 µg/mL
same,MIC,[6]; with inducer 100 μg/ml,4 µg/mL
same,MIC,[6]; without inducer,4 µg/mL
same,MIC,Escherichia coli; with inducer 100 μg/ml,1 to 4 µg/mL
same,MIC,Escherichia coli; without inducer,2 to 8 µg/mL
same,MIC,[7]; with inducer 100 μg/ml,>256 µg/mL
same,MIC,[7]; without inducer,>256 µg/mL
same,MIC,[8]; with inducer 100 μg/ml,128 µg/mL
same,MIC,[8]; without inducer,128 µg/mL
same,MIC,Salmonella; with inducer 100 μg/ml,1 to 4 µg/mL
same,MIC,Salmonella; without inducer,2 to 8 µg/mL
same,MIC,[9]; with inducer 100 μg/ml,2 µg/mL
same,MIC,[9]; without inducer,2 µg/mL
same,MIC,[10]; with inducer 100 μg/ml,128 µg/mL
same,MIC,[10]; without inducer,128 µg/mL
same,MIC,Proteus vulgaris OCC 195; with inducer 100 μg/ml,4 µg/mL
same,MIC,Proteus vulgaris OCC 195; without inducer,4 µg/mL
same,MIC,Str. agalactiae,128 µg/mL
same,MIC,S. haemolyticus,1 µg/mL
same,MIC,S. aureus,0.25 to 1 µg/mL
same,MIC,[11]; with inducer 100 μg/ml,16 µg/mL
same,MIC,[11]; without inducer,32 µg/mL
same,MIC,Cr. sakazakii,4 µg/mL
same,MIC,E. hermanii,1 µg/mL
same,MIC,Str. pyogenes,64 µg/mL
same,MIC,Strep. viridans OCC 234; with inducer 100 μg/ml,64 µg/mL
same,MIC,Strep. viridans OCC 234; without inducer,128 µg/mL
same,MIC,E. hermanii ATCC 33650; with inducer 100 μg/ml,1 µg/mL
same,MIC,E. hermanii ATCC 33650; without inducer,1 µg/mL
same,MIC,[12]; with inducer 100 μg/ml,16 µg/mL
same,MIC,[12]; without inducer,32 µg/mL
same,MIC,Str. viridans,64 µg/mL
same,MIC,Kleb. aerogenes,2 µg/mL
same,MIC,[13]; with inducer 100 μg/ml,4 µg/mL
same,MIC,[13]; without inducer,8 µg/mL
same,MIC,Ent. cloacae ATCC 13047; with inducer 100 μg/ml,1 µg/mL
same,MIC,Ent. cloacae ATCC 13047; without inducer,1 µg/mL
same,MIC,Ent. cloacae,1 µg/mL
same,MIC,Staph. aureus; with inducer 100 μg/ml,1 µg/mL
same,MIC,Staph. aureus; without inducer,1 µg/mL
"O[C@@H]1[C@H](Oc2cc(Cl)ccc2Oc2ccc(Cl)cc2Cl)OC[C@@H](O)[C@H]1O [β-D-Arabinoside, triclosan-β-D-arabinopyranoside]",MIC,E. coli,8 to 32 µg/mL
same,MIC,Staph. epidermidis; with inducer 100 μg/ml,4 to 64 µg/mL
same,MIC,Staph. epidermidis; without inducer,8 to 16 µg/mL
same,MIC,[1]; with inducer 100 μg/ml,>256 µg/mL
same,MIC,[1]; without inducer,>256 µg/mL
same,MIC,Hafnia alvei ATCC 13337; with inducer 100 μg/ml,4 µg/mL
same,MIC,Hafnia alvei ATCC 13337; without inducer,4 µg/mL
same,MIC,[2]; with inducer 100 μg/ml,256 µg/mL
same,MIC,[2]; without inducer,256 µg/mL
same,MIC,[3]; with inducer 100 μg/ml,64 µg/mL
same,MIC,[3]; without inducer,128 µg/mL
same,MIC,[4]; with inducer 100 μg/ml,128 µg/mL
same,MIC,[4]; without inducer,128 µg/mL
same,MIC,[5]; with inducer 100 μg/ml,>256 µg/mL
same,MIC,[5]; without inducer,>256 µg/mL
same,MIC,[6]; with inducer 100 μg/ml,64 µg/mL
same,MIC,[6]; without inducer,64 µg/mL
same,MIC,Escherichia coli; with inducer 100 μg/ml,4 to 32 µg/mL
same,MIC,Escherichia coli; without inducer,8 to 32 µg/mL
same,MIC,[7]; with inducer 100 μg/ml,>256 µg/mL
same,MIC,[7]; without inducer,>256 µg/mL
same,MIC,[8]; with inducer 100 μg/ml,256 µg/mL
same,MIC,[8]; without inducer,256 µg/mL
same,MIC,Salmonella; with inducer 100 μg/ml,32 to 64 µg/mL
same,MIC,Salmonella; without inducer,32 to 64 µg/mL
same,MIC,[9]; with inducer 100 μg/ml,16 µg/mL
same,MIC,[9]; without inducer,32 µg/mL
same,MIC,[10]; with inducer 100 μg/ml,128 µg/mL
same,MIC,[10]; without inducer,128 µg/mL
same,MIC,Proteus vulgaris OCC 195; with inducer 100 μg/ml,64 µg/mL
same,MIC,Proteus vulgaris OCC 195; without inducer,128 µg/mL
same,MIC,Str. agalactiae,128 µg/mL
same,MIC,S. haemolyticus,16 µg/mL
same,MIC,S. aureus,8 to 16 µg/mL
same,MIC,[11]; with inducer 100 μg/ml,32 µg/mL
same,MIC,[11]; without inducer,32 µg/mL
same,MIC,Cr. sakazakii,256 µg/mL
same,MIC,E. hermanii,32 µg/mL
same,MIC,Str. pyogenes,64 µg/mL
same,MIC,Strep. viridans OCC 234; with inducer 100 μg/ml,128 µg/mL
same,MIC,Strep. viridans OCC 234; without inducer,128 µg/mL
same,MIC,E. hermanii ATCC 33650; with inducer 100 μg/ml,16 µg/mL
same,MIC,E. hermanii ATCC 33650; without inducer,32 µg/mL
same,MIC,[12]; with inducer 100 μg/ml,64 µg/mL
same,MIC,[12]; without inducer,64 µg/mL
same,MIC,Str. viridans,128 µg/mL
same,MIC,Kleb. aerogenes,64 µg/mL
same,MIC,[13]; with inducer 100 μg/ml,64 µg/mL
same,MIC,[13]; without inducer,128 µg/mL
same,MIC,Ent. cloacae ATCC 13047; with inducer 100 μg/ml,16 µg/mL
same,MIC,Ent. cloacae ATCC 13047; without inducer,16 µg/mL
same,MIC,Ent. cloacae,16 µg/mL
same,MIC,Staph. aureus; with inducer 100 μg/ml,4 to 8 µg/mL
same,MIC,Staph. aureus; without inducer,4 to 8 µg/mL

# Source: patent US9908912B2, “Triclosan derivatives and uses thereof” (priority 2012, dated 2018)
